From patent US8513264B2, “Combination therapy for the treatment of diabetes and related conditions” (Boehringer Ingelheim International GmbH, priority 2008, dated 2013)

Assays:
[1] = tested on: Zucker Diabetic Fatty (ZDF) rats (ZDF/Crl-Lepr^fa); test: Oral glucose tolerance test in overnight fasted 9-weeks old male ZDF rats; type: in vivo, rat; conditions: 9-weeks old ZDF rats; single oral dose 3 mg/kg 30 min before glucose load 2 g/kg; versus vehicle control
Procedure: (§1) According to a first example an oral glucose tolerance test is performed in overnight fasted 9-weeks old male Zucker Diabetic Fatty (ZDF) rats (ZDF/Crl-Lepr^fa). A pre-dose blood sample is obtained by tail bleed. Blood glucose is measured with a glucometer, and the animals are randomized for blood glucose (n=5/group). […] The animals receive an oral glucose load (2 g/kg) 30 min after compound administration. Blood glucose is measured in tail blood 15 min, 30 min, 60 min, and 90 min after the glucose challenge. Glucose excursion is quantified by calculating the reactive glucose AUC. The data are presented as mean±SEM. The two-sided unpaired Student t-test is used for statistical comparison of the control group and the active groups as well as between active groups.

[2] = tested on: Zucker Diabetic Fatty (ZDF) rats (ZDF/Crl-Lepr^fa); test: Oral glucose tolerance test in overnight fasted 15-weeks old male ZDF rats (highly insulin-resistant model); type: in vivo, rat; conditions: 15-weeks old ZDF rats; single oral dose 3 mg/kg 30 min before glucose load 2 g/kg; versus vehicle control
Procedure: as §1, with “to a second example an” for “to a first example an”, “overnight fasted 15-weeks old male” for “overnight fasted 9-weeks old male”, “rats (ZDF/Crl-Lepr^fa). This aged ZDF rats serve as a highly insulin-resistant animal model. A pre-dose” for “rats (ZDF/Crl-Lepr^fa). A pre-dose”, “tail blood 30 min,” for “tail blood 15 min, 30 min,”, “60 min, 90 min, 120 min, and 180” for “60 min, and 90”, “min, and 180 min after” for “min, and 90 min after”

[3] = Excretion route at therapeutic oral dose levels; type: in vivo; conditions: mainly excreted via the liver

CC#CCn1c(N2CCC[C@@H](N)C2)nc2c1c(=O)n(Cc1nc(C)c3ccccc3n1)c(=O)n2C [Cpd. A, 1-[(4-methyl-quinazolin-2-yl)methyl]-3-methyl-7-(2-butyn-1-yl)-8-(3-(R)-amino-piperidin-1-yl)-xanthine]
reduction of glucose excursion (reactive glucose AUC) [1]: 49%
reduction of glucose excursion (reactive glucose AUC) [2]: 1%
excretion via the kidney [3]: < 7 % of the administered oral dose
